Here are results for two molecules from patent publication US10792377B2, “Compounds and method for imaging cancer” (Vanderbilt University, priority 2017, dated 2020).

As a reminder, the IC50 is the midpoint of a concentration-inhibition curve.

One series has as its target T1, murine COX-2 (Mus musculus, UniProt Q05769).
T1 sequence (Q05769 18-604): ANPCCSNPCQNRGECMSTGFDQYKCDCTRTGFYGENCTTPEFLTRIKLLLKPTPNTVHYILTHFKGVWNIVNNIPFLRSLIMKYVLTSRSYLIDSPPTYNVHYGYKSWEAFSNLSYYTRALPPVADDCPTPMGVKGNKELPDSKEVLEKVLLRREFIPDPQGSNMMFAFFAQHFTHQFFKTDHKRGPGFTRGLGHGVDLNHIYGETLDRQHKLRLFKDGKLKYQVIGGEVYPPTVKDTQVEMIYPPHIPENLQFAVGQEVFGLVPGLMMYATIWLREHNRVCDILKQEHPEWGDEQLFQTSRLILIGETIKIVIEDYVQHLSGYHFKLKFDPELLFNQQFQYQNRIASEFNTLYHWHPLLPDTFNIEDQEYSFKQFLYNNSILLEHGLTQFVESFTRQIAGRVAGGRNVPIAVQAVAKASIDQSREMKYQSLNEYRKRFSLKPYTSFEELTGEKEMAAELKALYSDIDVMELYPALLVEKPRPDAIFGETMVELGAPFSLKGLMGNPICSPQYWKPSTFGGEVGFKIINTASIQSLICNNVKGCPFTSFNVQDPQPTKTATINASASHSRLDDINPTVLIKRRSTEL
As to the kind of experiment: In vitro purified COX-2 inhibition assay (TLC, 14C-arachidonic acid). The class given is biochemical. The note with it: for COX-2 Selectivity Index (COX-1 IC50/COX-2 IC50): in vitro, purified enzymes. The method, then:
The in vitro cyclooxygenase (ovine COX-1 or human COX-2) inhibitory activities of these probes were tested by a previously described TLC assay (FIGS. 19-21). Briefly, reaction mixtures of 200 μL consisted of hematin-reconstituted protein in 100 mM Tris-HCl, pH 8.0, 500 μM phenol, and [1-^14C]arachidonic acid (50 μM, about 55-57 mCi/mmol, Perkin Elmer).
Inhibition Assay Using Purified COX-1 and COX-2. Inhibition of purified ovine COX-1 or mouse COX-2 by test compounds was assayed by a previously described method, which quantifies the conversion of [1-^14C]arachidonic acid to [1-^14C]prostaglandin products. Reaction mixtures of 200 ∝L consisted of hematin-reconstituted protein in 100 mM Tris-HCl, pH 8.0, 500 μM phenol, and [1-^14C]arachidonic acid (50 μM, ˜55-57 mCi/mmol, Perkin Elmer). For the time-dependent inhibition assay, hematin-reconstituted COX-1 ([…]) was preincubated at 25° C. for 17 min and 37° C. for 3 min with varying inhibitor concentrations in dimethylsulfoxide followed by the addition of [1-^14C]arachidonic acid (50 μM) for 30 s at 37° C. Reactions were terminated by solvent extraction in diethyl ether:methanol:1 M citrate buffer, pH 4.0 (30:4:1). The phases were separated by centrifugation at 2000 g for 2 min, and the organic phase was spotted on a thin-layer chromatography plate (EMD Kieselgel 60, VWR). The plate was developed in ethyl acetate:methylene chloride:glacial AcOH (75:25:1) at 4° C. Radiolabeled products were quantified with a radioactivity scanner (Bioscan, Inc., Washington, D.C.).

The nature of series [1]: Fluorometry: extinction, quantum yield, fluorescence in DMSO/EtOH. The class given is physicochemical. The method, then: The TEMPO- and PROXYL-fluorocoxib probes are non-fluorescent (Φfl<0.3) in their non-trapped form, whereas fluorocoxib A or B are highly fluorescent (Φfl[…]) (FIG. 13). However, the absorbance and fluorescence of the TEMPO- and PROXYL-fluorocoxib probes increases in a time-dependent fashion when incubated in a DMSO/EtOH solution (FIGS. 14-15). Referring to FIG. 15, it is noted that at about 16 hours, fluorescence (ex 586 nm) read about 120,000 cps at 607 nm. Turning to FIG. 16, as compared to 5-ROX acid, which had extinction of 36/mM/cm at 580 nm and quantum yield of 0.94 at 604 nm, and fluorocoxib A, which had extinction of 45/mM/cm at 579 nm and quantum yield of 0.93 at 602 nm, fluorocoxib Q1 had extinction of less than 0.4/mM/cm at 586 nm and quantum yield of less than 0.36 at 607 nm. Without wishing to be bound by theory, it is believed that the time-dependent increase in fluorescence and measured fluorescence at 607 nm is the result of reduction/oxidation of fluorocoxib Q1 in the DMSO/EtOH solution (FIG. 16).
Fluorometry. Steady state fluorescence excitation and emission spectra were determined for each compound with a Spex 1681 Fluorolog spectrofluorometer, equipped with a 450 W xenon arc lamp. […]

Another series has as its system 1483 HNSCC cells. As to the kind of experiment: Fluorescence microscopy of 1483 HNSCC cells. It is filed as cell-based, human. The note with it: 1483 cells, 0.5 h preincubation. As for the experimental part: To test the specific activation of probes in cancer cells, compound 1 was incubated at selected time points (0.5, 1.0, 2.0, 3.0 h). After washout, the cells were imaged under fluorescence microscope.
Fluorescence microscopy of 1483 HNSCC cells. Fluorescence imaging of human 1483 HNSCC cells by compound 1 was performed by a previously described method. Briefly, human 1483 HNSCC cells were grown to 60% confluence. The cells were incubated in 2.0 ml Hank's balanced salt solution (HBSS)/Tyrode's with 200 nM compound 1 for 30 min at 37° C. The cells were then washed briefly three times and incubated in HBSS/Tyrode's for 30 min at 37° C. Following the required washout period, the cells were imaged in 2.0 ml fresh HBSS/Tyrode's on a Zeiss Axiovert 25 Microscope with the propidium iodide filter (0.5-1.0 sec exposure, gain of 2).

Series [2] concerns COX-2 expressing 1483 tumors. As to the kind of experiment: In vivo imaging of nude mice with 1483 xenografts. The following applies: 1 mg/kg intraperitoneal, nude mice 1483 xenografts. As for the experimental part:
The specificity of probe 1 was also evaluated by targeting COX-2 in human tumor xenografts. Nude mice bearing 1483 xenograft tumors on the left flank were dosed by intraperitoneal injection with 1 mg/kg fluorocoxib A or compound 1 (FIG. 25). […] However, signal was detected in the COX-2 expressing 1483 tumors of mice dosed with compound 1 starting at 24 h. Maximum fluorescence is detectable in the tumor at 48 h post-injection of probe 1 (FIGS. 27A-C).
Establishment of xenograft tumors in nude mice. Human 1483 HNSCC cells and HCT116 colorectal carcinoma cells were used to grow tumor xenografts in nude mice using a previously described method. Female nude mice, NU-Foxlnu, were purchased at 6-7 weeks of age from Charles River Labs. Human 1483 HNSCC cells were trypsinized and resuspended in cold PBS containing 30% Matrigel such that 1×10^6 cells in 100 μl were injected subcutaneously on the left flank and grew for 2-3 weeks.
In vivo imaging of nude mice with xenografts. Fluorescence imaging of tumors by test compounds was performed by a previously described method. Female nude mice bearing medium-sized 1483 xenograft tumors on the left flank were dosed by intraperitoneal injection with 1 mg/kg compound 1. The animals were lightly anesthetized with 2% isoflurane for fluorescence imaging in the Xenogen IVIS 200 with the DSRed filter at 1.5 cm depth and 1 sec exposure (f2).

For `COc1ccc2c(c1)c(CC(=O)NCCCCNC(=O)c1ccc(C3=c4cc5c6c(c4Oc4c3cc3c7c4CCCN7CCC3)CCC[N+]=6CCC5)c(C(=O)[O-])c1)c(C)n2C(=O)c1ccc(Cl)cc1` [Fluorocoxib A, reference compound], at murine COX-2, the “COX-2 Selectivity Index (COX-1 IC50/COX-2 IC50)” value is reported as above 35. In addition, in series [1] (at 580 nm (5-ROX acid), 579 nm (fluorocoxib A), 586 nm (fluorocoxib Q1)), the extinction worked out at 45 mM⁻¹ cm⁻¹. In series [1] (at 604 nm (5-ROX acid), 602 nm (fluorocoxib A), 607 nm (fluorocoxib Q1)), this molecule registered a quantum yield of 0.93. Further, the intracellular fluorescence entry with 1483 HNSCC cells is “bright fluorescence”. The “fluorescence in the tumor” value in series [2] (3 h post-injection) is given as “fluorescence was observed in the tumor”.

`COc1ccc2c(c1)c(CC(=O)NCCCCNC(=O)c1ccc(C3=c4cc5c6c(c4Oc4c3cc3c7c4CCCN7CCC3)CCC[N+]=6CCC5)c(C(=O)NC3CC(C)(C)N([O])C(C)(C)C3)c1)c(C)n2C(=O)c1ccc(Cl)cc1` [Compound 1] gave an IC50 on murine COX-2 (COX-2 IC50, in vitro purified cox assay) of 303 nM. For the same molecule, the “COX-2 Selectivity Index (COX-1 IC50/COX-2 IC50)” value on murine COX-2 is reported as above 83. For the same molecule, the IC50 against murine COX-2 (mCOX-2 IC50, purified murine COX-2 (63 nM), inhibitor 20 min, then 1-14C-AA (50 μM) 37° C. 30 s, duplicates) stood at 300 nM. Besides, in series [2], the “time post-injection at which tumor signal starts to be detected” value amounted to 24 h and the “time post-injection of maximum tumor fluorescence” value came out at 48 h.
